Source: US11472844B2, “Peptidomimetics, method of synthesis and uses thereof” (priority 2017, dated 2022)
*: point of attachment. X1 = CC[N+]1=C(/C=C/C=C/C=C2N(CCCCCC(=O)NCCN3C(=O)CC(*)C3=O)c3ccc(S(=O)(=O)O)cc3C2(C)C)C(C)(C)c2cc(S(=O)(=O)[O-])ccc21

Columns and labels:
[1] = tested on: cystic fibrosis (CF) patients sputum; experiment: CF patient sputum immunofluorescent staining; design: species or system human; settings: together with anti-Muc2 and anti-Muc5ac antibodies, 1 μg/mL
Experimental: FIG. 4. CF patient sputum immunofluorescent staining with MUB40-Cy5 (SEQ ID NO: 3), anti-Muc2 and anti-Muc5ac antibodies (with secondary antibodies conjugated with FITC and Rhodamin respectively).
Muc2 was stained with an anti-Mucin2 antibody (green). Muc5ac was stained with an anti-Mucin5ac antibody (red). Tissue was additionally stained with MUB40-Cy5 (1 μg/mL, magenta). DNA was stained with Dapi (blue).

[2] = tested on: neutrophils recruited to guinea pig colonic mucosa infected with Shigella flexneri; experiment: Guinea pig model of shigellosis, staining of fixed colon sections
Experimental: Guinea pig. The experimental protocol was approved by the french Ethic Committee Paris (n° 20140069, 2014). Young guinea pigs (Hartley, <150 g, Charles River) were anaesthetized and infected intrarectally with 10^9 CFU exponentially grown Shigella flexneri 5a (M90T) pGFP as previously described (Shim et al. 2007) (Monceaux et al. 2016). Infection occurred during 8 hours before animals were sacrificed and infected colons collected and fixed in 4% Paraformaldehyde (PFA) for two hours. For immunohistochemical staining, infected guinea pig colon samples were washed in PBS and incubated at 4° C. in PBS containing 16% sucrose for 4 hours, followed by incubation in PBS with 30% sucrose overnight. Samples were frozen in OCT (VWR 361603E) on dry ice. Frozen blocks were stored at −80 until sectioning. 10 to 30 μm sections were obtained using a cryostat CM-3050S (Leica). Tissue slices were labeled in PBS+0.1% saponin (Sigma-Aldrich) with MUB40-Cy5 or MUB40-Dylight (1 μg/ml) to localize recruited neutrophils. Slides were washed three time in PBS+0.1% saponin, three times in PBS, and three times in deionized H2O and mounted with prolong gold^tm mounting media.

[3] = tested on: colonic mucus layer and infiltrated neutrophils; experiment: Human colonic explant infected with Shigella flexneri, two-photon microscopy; settings: 1 μg/mL, after fixation and permeabilization
From the text: Ex vivo infection of human colonic tissue. Human colon explants were infected with S. flexneri 5a (M90T) pGFP, as described in (Nothelfer et al. 2014) and adapted from (Coron et al. 2009). Briefly, colonic tissues were cut into ˜5 cm^2 segments and pinned flat, with the submucosa facing down, onto a 4% agarose layer in tissue culture Petri dishes containing DMEM/F12 culture medium (Invitrogen) supplemented with 10% FBS, glutamine, and 2.1 g/L NaHCO3(Sigma-Aldrich). S. flexneri (M90T) 5a pGFP was added at ˜2×10^8 bacteria per cm^2 of tissue. Bacteria were allowed to settle for 15 min at room temperature before incubation at 37° C., 5% CO2 for 6 h on a slowly rocking tray. Tissue was fixed by overnight incubation with 4% PFA (Euromedex) and 0.1 M Hepes (Gibco) in PBS. For whole-mount staining, tissues were fixed on a 40×11-mm tissue culture dish (TPP) with Histoacryl tissue glue (Braun). To obtain 150-μm-thick sections, the tissue was embedded in low-melting agarose according to (Snippert et al. 2011) and cut with a vibratome (VT1000E; Leica).
Two-photons microscopy. […] MUB40-Cy5 was detected using multiphoton excitation (MPE, magenta), Acquisitions were performed with Zen 2008 SP 1.1 software acquisition package developed by ZEISS. […]

[4] = tested on: recruited neutrophils and secreted lactoferrin; experiment: Labelling of human inflamed tissue biopsies; settings: malignant fibrous histiocytoma and streptococcal skin abscess biopsies, 1 μg/mL
From the text: Human inflammatory tissues. Human biopsies from patients diagnosed for malignant fibrous histiocytoma and for a streptococcal skin abscess were collected and processed at the Kremlin Bicêtre Hospital, Anatomy and Pathological Histology Department. Tissue samples were fixed in formaldehyde and further embedded in paraffin. 10 μm sections were obtained using a microtome (Leica Biosystem). Tissues were labeled with a mouse anti-lactoferrin primary monoclonal antibody (Hycult biotech, clone 265-1K1, 1:50 dilution), MUB40-Cy5 (SEQ ID NO: 3) (1 μg/mL), and Dapi (1:1000 dilution) as described below.

Ac-C(X1)TAEGIKKFEGDGYELFKDNFPAGEKFDNDDTNDQFYTVIF-NH2 [Cy5-MUB40#1]
labelling of CF patients sputum [1]: labeled | detection of neutrophil lactoferrin secretion ([2]; fixed guinea pig colonic mucosa infected by Shigella flexneri, 1 μg/mL): successfully revealed | labelling of recruited neutrophils ([2]; guinea pig colon, Shigella flexneri, 1 μg/ml): specifically labeled | labelling of colonic mucus layer and infiltrated neutrophils [3]: labelled | labelling of recruited neutrophils and secreted lactoferrin [4]: labeled
